Assay results taken from patent US20220087996A1, “Histone acetylase p300 inhibitor and use thereof” (HINOVA PHARMACEUTICALS INC., priority 2018, published 2022).
Blank lines part the entries; values can stand above or below the compound they belong to.

Columns and labels:
CWR22RV1 cells [1] = assay: Inhibition of proliferation of CWR22RV1 cells (CCK-8); type: cell-based, human; conditions: Homo sapiens, CWR22Rv1, 144 h, 6 days culture
Method in brief: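 CWR22RV1 cells (1500/well) were exposed to 9 three-fold compound concentrations (top final 10 μM, 0.1% DMSO) for 6 days. CCK-8 was added for 2.5 h, and absorbance was read at 450 nm. IC50 was fitted with a dose-response-inhibition equation.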

VCAP = assay: Inhibition of proliferation of VCAP cells; type: cell-based; conditions: Homo sapiens; Prostate cancer cell line VCAP; read-out: IC50 against VCAP
Method: (§1) 1) CWR22RV1 cells were subcultured in cell culture medium, and the cells in good growth condition were seeded in a 96-well plate, 80 μL for each well, and the cell number in each well was 1500. The plate was incubated overnight in a 37° C., 5% CO2 cell incubator. 2) The drug was prepared as 30 mM stock solution with dimethyl sulfoxide (DMSO). Prior to use, the stock solution was diluted 3 times with DMSO, and then further diluted as 3-fold gradient to obtain 9 concentration gradients. Then, each concentration of compound was diluted 200 times with the culture solution (ensuring that the DMSO concentration in the culture system was 0.1%), and two replicate wells were set for each concentration. 20 μL of diluted compound solution was added to the cell culture well (with final concentrations of 10 μM, 3.3 μM. 1.1 μM . . . ), and the plate was gently shaken to mix. In addition, 3 negative control wells containing only cells and 3 blank control wells containing only culture medium were included (6 wells were each added 20 μL DMSO diluted 200 times with culture medium). 2. Result detection: (1) After culturing for 6 days, 10 μL CCK-8 was added to each well, and the plate was continually cultured in a 37° C., 5% CO2 cell incubator for 2.5 h. (2) The absorbance (OD value) was detected at 450 nm using a multifunctional microplate reader. (3) The data were analyzed by Dose-response-inhibition equation in the software GraphPad Prism6, and the IC50 value was obtained.
(§2) Using the same method as Experimental example 2, CWR22RV1 cells were replaced with tumor cells in Table 3, and the IC50 (nM) of the compound according to the present invention against the activity of these tumor cells was tested and calculated.

LNCAP-AR = assay: Inhibition of proliferation of LNCAP-AR cells; type: cell-based; conditions: Prostate cancer cell line LNCAP-AR; read-out: IC50 against LNCAP-AR
Method: as §1, §2

LNCAP = assay: Inhibition of proliferation of LNCAP cells; type: cell-based; conditions: Homo sapiens; Prostate cancer cell line LNCAP; read-out: IC50 against LNCAP
Method: as §1, §2

MOLT-4 = assay: Inhibition of proliferation of MOLT-4 cells; type: cell-based; conditions: Homo sapiens; Leukemia cell line MOLT-4; read-out: IC50 against MOLT-4
Method: as §1, §2

TALL-1 = assay: Inhibition of proliferation of TALL-1 cells; type: cell-based; conditions: Homo sapiens; Leukemia cell line TALL-1; read-out: IC50 against TALL-1
Method: as §1, §2

HEL = assay: Inhibition of proliferation of HEL cells; type: cell-based; conditions: Homo sapiens; Leukemia cell line HEL; read-out: IC50 against HEL
Method: as §1, §2

ATN-1 = assay: Inhibition of proliferation of ATN-1 cells; type: cell-based; conditions: Homo sapiens; Leukemia cell line ATN-1; read-out: IC50 against ATN-1
Method: as §1, §2

MOLM-16 = assay: Inhibition of proliferation of MOLM-16 cells; type: cell-based; conditions: MOLM16; Leukemia cell line MOLM-16; read-out: IC50 against MOLM-16
Method: as §1, §2

OCI-AML3 = assay: Inhibition of proliferation of OCI-AML3 cells; type: cell-based; conditions: Homo sapiens, OCI-AML-3; Leukemia cell line OCI-AML3; read-out: IC50 against OCI-AML3
Method: as §1, §2

MT-2 = assay: Inhibition of proliferation of MT-2 cells; type: cell-based; conditions: Homo sapiens, MT2; Leukemia cell line MT-2; read-out: IC50 against MT-2
Method: as §1, §2

Pfeiffer = assay: Inhibition of proliferation of Pfeiffer cells; type: cell-based; conditions: Homo sapiens; Lymphoma cell line Pfeiffer; read-out: IC50 against Pfeiffer
Method: as §1, §2

KARPAS-422 = assay: Inhibition of proliferation of KARPAS-422 cells; type: cell-based; conditions: Homo sapiens; Lymphoma cell line KARPAS-422; read-out: IC50 against KARPAS-422
Method: as §1, §2

Z-138 = assay: Inhibition of proliferation of Z-138 cells; type: cell-based; conditions: Homo sapiens; Lymphoma cell line Z-138; read-out: IC50 against Z-138
Method: as §1, §2

RL = assay: Inhibition of proliferation of RL cells; type: cell-based; conditions: Homo sapiens; Lymphoma cell line RL; read-out: IC50 against RL
Method: as §1, §2

MM.1R = assay: Inhibition of proliferation of MM.1R cells; type: cell-based; conditions: Lymphoma cell line MM.1R; read-out: IC50 against MM.1R
Method: as §1, §2

MLMA = assay: Inhibition of proliferation of MLMA cells; type: cell-based; conditions: Lymphoma cell line MLMA; read-out: IC50 against MLMA
Method: as §1, §2

MAVER-1 = assay: Inhibition of proliferation of MAVER-1 cells; type: cell-based; conditions: Homo sapiens, Maver1; Lymphoma cell line MAVER-1; read-out: IC50 against MAVER-1
Method: as §1, §2

KMS-12-PE = assay: Inhibition of proliferation of KMS-12-PE cells; type: cell-based; conditions: Homo sapiens; Lymphoma cell line KMS-12-PE; read-out: IC50 against KMS-12-PE
Method: as §1, §2

MDA-MB-453 = assay: Inhibition of proliferation of MDA-MB-453 cells; type: cell-based; conditions: Homo sapiens; Breast cancer cell line MDA-MB-453; read-out: IC50 against MDA-MB-453
Method: as §1, §2

MCF-7 = assay: Inhibition of proliferation of MCF-7 cells; type: cell-based; conditions: Homo sapiens, MCF7; Breast cancer cell line MCF-7; read-out: IC50 against MCF-7
Method: as §1, §2

BT-474 = assay: Inhibition of proliferation of BT-474 cells; type: cell-based; conditions: Homo sapiens; Breast cancer cell line BT-474; read-out: IC50 against BT-474
Method: as §1, §2

DU4475 = assay: Inhibition of proliferation of DU4475 cells; type: cell-based; conditions: Homo sapiens, DU-4475; Breast cancer cell line DU4475; read-out: IC50 against DU4475
Method: as §1, §2

HCC1428 = assay: Inhibition of proliferation of HCC1428 cells; type: cell-based; conditions: Homo sapiens; Breast cancer cell line HCC1428; read-out: IC50 against HCC1428
Method: as §1, §2

EVSA-T = assay: Inhibition of proliferation of EVSA-T cells; type: cell-based; conditions: Homo sapiens; Breast cancer cell line EVSA-T; read-out: IC50 against EVSA-T
Method: as §1, §2

KMS-20 = assay: Inhibition of proliferation of KMS-20 cells; type: cell-based; conditions: Multiple myeloma cell line KMS-20; read-out: IC50 against KMS-20
Method: as §1, §2

KMS-11 = assay: Inhibition of proliferation of KMS-11 cells; type: cell-based; conditions: Homo sapiens; Multiple myeloma cell line KMS-11; read-out: IC50 against KMS-11
Method: as §1, §2

MM.1S = assay: Inhibition of proliferation of MM.1S cells; type: cell-based; conditions: Homo sapiens, MM1.S; Multiple myeloma cell line MM.1S; read-out: IC50 against MM.1S
Method: as §1, §2

NCI-H929 = assay: Inhibition of proliferation of NCI-H929 cells; type: cell-based; conditions: Homo sapiens; Multiple myeloma cell line NCI-H929; read-out: IC50 against NCI-H929
Method: as §1, §2

OPM-2 = assay: Inhibition of proliferation of OPM-2 cells; type: cell-based; conditions: Homo sapiens; Multiple myeloma cell line OPM-2; read-out: IC50 against OPM-2
Method: as §1, §2

CWR22RV1 cells [2] = assay: Compound in combination with CDK4/6 inhibitor palbociclib on proliferation of CWR22RV1 cells; type: cell-based, human; conditions: Homo sapiens, CWR22Rv1, single agent; read-out: IC50 against the activity of CWR22RV1 cells
Method: The IC50 values (nM) of the compound according to the present invention, palbociclib, and the combination of the compound according to the present invention and palbociclib against CWR22RV1 cell proliferation were tested and calculated, and the detailed procedures were as follows:
(§3) 1) CWR22RV1 cells were subcultured in cell culture medium, and the cells in good growth condition were seeded in a 96-well plate, 60 μL for each well, and the cell number in each well was 2000. The plate was incubated overnight in a 37° C., 5% CO2 cell incubator. 2) The drug was prepared as 10 mM stock solution with dimethyl sulfoxide (DMSO). Prior to use, the stock solution was diluted 3 times with DMSO, and then further diluted as 3-fold gradient to obtain 9 concentration gradients. Then, each concentration of compound was diluted 200 times with the culture solution (ensuring that the DMSO concentration in the culture system was 0.1%), and two replicate wells were set for each concentration. 20 μL of diluted compound solution was added to the cell culture well (with final concentrations of 10 μM, 3.3 μM, 1.1 μM . . . ). Palbociclib was diluted with culture medium to 500 nM, 150 nM, 50 nM, 5 nM, and 20 μL diluted compound solution was added to the corresponding cell culture wells (with a final concentration of 100 nM, 30 nM, 10 nM, 1 nM). The plate was gently shaken to mix. In addition, 3 negative control wells containing only cells and 3 blank control wells containing only culture medium were included (6 wells were each added 20 μL DMSO diluted 200 times with culture medium).
(§4) (1) After culturing for 6 days, 10 μL CCK-8 was added to each well, and the plate was continually cultured in a 37° C., 5% CO2 cell incubator for 2.5 h. (2) The absorbance (OD value) was detected at 450 nm using a multifunctional microplate reader. (3) The data were analyzed by Dose-response-inhibition equation in the software GraphPad Prism6, and the IC50 value was obtained.

MCF-7 cells = assay: Compound in combination with CDK4/6 inhibitor palbociclib against proliferation of MCF-7 cells; type: cell-based; conditions: Homo sapiens, MCF7, single agent
Method: as §3, §4
Using the same method as Experimental example 4, CWR22RV1 cells were replaced with MCF-7 cells, and the IC50 values (nM) of the compound according to the present invention, palbociclib, as well as the combination of the compound according to the present invention and palbociclib against the proliferation of MCF-7 cells w ere tested and calculated.

IC50 (VCAP): ≤ 500 nM | IC50 (LNCAP-AR): ≤ 500 nM | IC50 (LNCAP): ≤ 500 nM | IC50 (MOLT-4): ≤ 500 nM | IC50 (MOLM-16): ≤ 500 nM | IC50 (OCI-AML3): ≤ 500 nM | IC50 (KARPAS-422): ≤ 500 nM | IC50 (MM.1R): 500 to 2000 nM | IC50 (MDA-MB-453): ≤ 500 nM | IC50 (MCF-7): ≤ 500 nM | IC50 (BT-474): ≤ 500 nM | IC50 (HCC1428): ≤ 500 nM | IC50 (MM.1S): 500 to 2000 nM | IC50 (NCI-H929): ≤ 500 nM
Compound: CNC(=O)Nc1cc2c(cc1F)[C@@]1(CC2)OC(=O)N(CC(=O)N2[C@@H](C)CC[C@H]2c2cc(F)c(F)c(F)c2)C1=O [Example 390, 1-((R)-6-fluoro-3′-(2-((2S,5S)-2-methyl-5-(3,4,5-trifluorophenyl)pyrrolidin-1-yl)-2-oxoethyl)-2′,4′-dioxo-2,3-dihydrospiro[indene-1,5′-oxazolidine]-5-yl)-3-methylurea]
IC50 (CWR22RV1 cells [1]; read-out: IC50 against CWR22RV1 cells): ≤ 500 nM | IC50 (CWR22RV1 cells [1]; read-out: IC50 against CWR22RV1 cells (text)): ≤ 500 nM | IC50 (TALL-1): ≤ 500 nM | IC50 (HEL): ≤ 500 nM | IC50 (ATN-1): ≤ 500 nM | IC50 (MT-2): 500 to 2000 nM | IC50 (Pfeiffer): ≤ 500 nM | IC50 (Z-138): ≤ 500 nM | IC50 (RL): ≤ 500 nM | IC50 (MLMA): ≤ 500 nM | IC50 (MAVER-1): ≤ 500 nM | IC50 (KMS-12-PE): 500 to 2000 nM | IC50 (DU4475): 500 to 2000 nM | IC50 (EVSA-T): 500 to 2000 nM | IC50 (KMS-20): ≤ 500 nM | IC50 (KMS-11): ≤ 500 nM | IC50 (OPM-2): ≤ 500 nM

IC50 (MCF-7 cells): 34 nM
Compound: CC(=O)c1c(C)c2cnc(Nc3ccc(N4CCNCC4)cn3)nc2n(C2CCCC2)c1=O [palbociclib, reference compound]
IC50 (CWR22RV1 cells [2]): 66 nM
